Experimental data reported in patent US8252832B2, “Kinesin inhibitors as cancer therapeutics” (Novartis AG, priority 2007, dated 2012).
Several values for one entry are separate records, joined by “and”; a condition that tells them apart may be missing. Equal values may be shown once. Read-outs that look alike come from different tables or passages of the source. Marks after values point to notes of the source that are not given here.

Experiments:
HCT15 tumor xenograft = HCT15 tumor xenograft model, tumor response; assay type: in vivo, mouse
Description: Routine animal care and assurance of welfare were as described above.
Human HCT15 colon carcinoma cells were obtained from the National Cancer Institute's DCTD Tumor Repository (catalog #NCI-502711, Rockville, Md.). HCT15 cells were grown in RPMI 1640 with 2 mM L-glutamine (Mediatech Inc., catalog #15-040-CV) supplemented with 10% fetal bovine serum (JRH Biosciences, catalog #12003-1000M). The cells were tested to be free of Mycoplasma sp. and murine viruses in the IMPACT1 PCR assay panel (RADIL, University of Missouri, Columbia, Mo.)
These cells were grown as adherent cultures, maintained at 37° C. in a humidified atmosphere containing 5% carbon dioxide. Cells were cultured for fewer than 10 passages prior to use. Cells were harvested at 95% confluency, and centrifuged at ˜800×g for 5 minutes at 4° C. and then resuspended in a 1:1 ratio of HBSS (Mediatech Inc., catalog #21-021-CV) plus Matrigel™ at a concentration of 50 million cells/mL for implantation subcutaneously (injection volume of 0.2 mL).
Treatments for the efficacy studies were initiated 10 days following tumor cell implantation when tumors were approximately 300 mm^3. Compound IIa and SB-715992 were administered intravenously (i.v.) via the tail vein in a volume of 8 mL/kg at the doses indicated. Paclitaxel was administered intraperitoneally (i.p.) in a volume of 16 mL/kg at 30 mg/kg.
Tumor volume was calculated as (L×W2)/2. […] Data was analyzed as described above.

[1] = q4d × 3
Description: Experiments were performed using outbred athymic nu/nu mice (Charles River Laboratories) approximately 6-8 weeks old. Upon arrival, animals received a subcutaneous microchip implant (AVID, Folsom, La.) in the subscapular region for identification of individuals. Animals were allowed to acclimatize for 1 week before any experimental procedures began.
Compound IIa, compound IIc, compound IIa (shown below), and SB-715992 were formulated in a Captisol®-based formulation. Doses were administered intravenously (i.v.) and adjusted to each animal's body weight. Formulations were made once at the beginning of study and stored at room temperature. Clinical grade paclitaxel was purchased pre-mixed in a cremophor-based vehicle (Mayne Pharma, now Hospira, Lake Forest, Ill., catalog #NDC-6170334209) and diluted in sterile saline to provide a dose volume of 16 mL/kg for a 30 mg/kg dose administered intraperitoneally (i.p.)
For the efficacy studies, mice were enrolled with a mean tumor volume of approximately 300 mm^3. Tumor xenografts were measured in two dimensions (L and W) with digital calipers twice weekly from the start of dosing on Day 0. Tumor volume was calculated as (L×W^2)/2. Body weights were measured twice weekly and clinical observations were recorded daily. Tumor volume and body weights were captured and stored by StudyDirector software (StudyLog, South San Francisco, Calif.).

[2] = test system: human multiple myeloma KMS-11-luc tumor xenografts; assay: Subcutaneous KMS-11-luc tumor xenograft model, tumor response; assay type: in vivo, mouse
Description: Experiments were performed using immunodeficient SCID-Beige female mice approximately 7-8 weeks old (Charles River Laboratories, Wilmington, Mass.). […] Routine animal care and assurance of welfare were as described above.
Human KMS-11-luc multiple myeloma cells were obtained from the laboratory of Suzanne Trudel at the University of Toronto (Ontario, Canada) and tested to be free of Mycoplasma sp. and murine viruses in the IMPACT1 PCR assay panel (RADIL, University of Missouri, Columbia, Mo.). Prior to our receiving this cell line, it had been stably engineered to express luciferase by retroviral transfection of the pGC-gfp/luc vector. KMS-11-luc cells were grown in Iscove's medium supplemented with 2 mmol/L L-glutamine (Mediatech, Inc., Hemdon, Va.) and 10% fetal bovine serum (JRH Biosciences, catalog #12003-1000M). These cells were grown as suspension cultures, maintained at 37° C. in a humidified atmosphere containing 5% carbon dioxide. Cells were cultured for fewer than 10 passages prior to use. Cells were harvested at approximately 2 million cells/mL, and centrifuged at ˜800×g for 5 minutes at 4° C. and then resuspended in a 1:1 mixture of cold Hank's balanced salt solution (HBSS) and Matrigel™ (Mediatech Inc., catalog #21-021-CV; BD Biosciences, catalog #354234, respectively) at a concentration of 50 million cells/mL for implantation subcutaneously (injection volume of 0.2 mL). Alternatively, for the disseminated disease model, cells were prepared only in cold HBSS at a concentration of 100 million cells/mL for intravenous (i.v.) implantation via the tail vein (injection volume of 0.1 mL).
Compound IIa and SB-715992 (free base) were formulated in 20% Captisol for a dose volume of 8 mL/kg. Doses were adjusted to each animal's body weight.
For the efficacy evaluation in the subcutaneous tumor model, 10 million cells combined in a 1:1 mixture of HBSS and Matrigel™ were injected subcutaneously in the right flank in a total volume of […]. […] Tumor volume was calculated as (L×W2)/2. […] Data analysis was as described above.

## CC(=O)O[C@H]1C(=O)[C@@]2(C)[C@H]([C@H](OC(=O)c3ccccc3)[C@]3(O)C[C@H](OC(=O)[C@H](O)[C@@H](NC(=O)c4ccccc4)c4ccccc4)C(C)=C1C3(C)C)[C@]1(OC(C)=O)CO[C@@H]1C[C@@H]2O [Paclitaxel, reference compound]
HCT15 tumor xenograft; 30 mg/kg, Q4d × 3, i.p.
  Δ Tumor volume, Day 15: 703 ± 198 mm^3
  ΔT/ΔC, Day 15 (%): 104%
[1]; 30 mg/kg, i.p.
  Survival (alive/total): 9/9
[1]; Table 14 study, 30 mg/kg, i.p.
  Survival (alive/total): 9/9
[1]; Table 15 study, 30 mg/kg, i.p.
  Survival (alive/total): 10/10
[2]; 30 mg/kg, Q4d × 3, i.p.
  T/C, Day 31 (%): 30%
  Δ Tumor volume, Day 31: 640 ± 190 mm^3
[2]; 30 mg/kg, Q4d × 3, i.p., D3
  Max. % Regression (Day): 5 (D3) %

## Cc1ccc(C(=O)N(CCCN)[C@@H](c2nc3cc(Cl)ccc3c(=O)n2Cc2ccccc2)C(C)C)cc1 [SB-715992, Ispinesib, reference compound]
HCT15 tumor xenograft; 7.5 mg/kg, q4d × 3, i.v
  Δ Tumor volume, Day 15: 647 ± 164 mm^3
  ΔT/ΔC, Day 15 (%): 87%
HCT15 tumor xenograft; 15 mg/kg, q4d × 3, i.v.
  Δ Tumor volume, Day 15: 491 ± 109 mm^3
  ΔT/ΔC, Day 15 (%): 67%
[1]; 15 mg/kg, i.v.
  Survival (alive/total): 9/9
[1]; 15 mg/kg, i.v., D7
  % Max. Δ body weight, (Day): 4 (D7) %
[1]; Table 14 study, 15 mg/kg, i.v.
  Survival (alive/total): 9/9
[1]; Table 14 study, 15 mg/kg, i.v., D4
  % Max. Δ body weight, (Day): −1 (D4) %
[1]; Table 15 study, 15 mg/kg, i.v.
  Survival (alive/total): 10/10
[1]; Table 15 study, 15 mg/kg, i.v., D11
  % Max. Δ body weight, (Day): −3 (D11) %
[2]; 7.5 mg/kg, Q4d × 3, i.v.
  Δ Tumor volume, Day 31: −46 ± 19 mm^3
[2]; 7.5 mg/kg, Q4d × 3, i.v., D14
  Max. % Regression (Day): 49% and 49, (D14) %

## CC(C)(C)[C@H](c1nc(-c2cc(F)ccc2F)cn1Cc1ccccc1)N(CC[C@H](N)CF)C(=O)CO [Compound IIa]
HCT15 tumor xenograft; 1.25 mg/kg, q4d × 3, i.v
  Δ Tumor volume, Day 15: 671 ± 172 mm^3
  ΔT/ΔC, Day 15 (%): 60%
HCT15 tumor xenograft; 2.5 mg/kg, q4d × 3, i.v
  Δ Tumor volume, Day 15: 735 ± 159 mm^3
  ΔT/ΔC, Day 15 (%): 65%
HCT15 tumor xenograft; 4.0 mg/kg, q4d × 3, i.v
  Δ Tumor volume, Day 15: 99 ± 78 mm^3
HCT15 tumor xenograft; 4.0 mg/kg, q4d × 3, i.v, listed as COMPOUND IIa
  ΔT/ΔC, Day 15 (%): 26* %
HCT15 tumor xenograft; 4.0 mg/kg, q4d × 3, i.v, listed as compound IIa
  ΔT/ΔC, Day 15 (%): 26%
[1]; 5 mg/kg, i.v.
  Survival (alive/total): 9/9
[1]; 5 mg/kg, i.v., D11
  % Max. Δ body weight, (Day): −2 (D11) %
[2]; 0.25 mg/kg, Q4d × 3, i.v
  T/C, Day 31 (%): 25%
  Δ Tumor volume, Day 31: 527 ± 152 mm^3
[2]; 0.25 mg/kg, Q4d × 3, i.v, D7
  Max. % Regression (Day): 24 (D7) %
[2]; 0.5 mg/kg, Q4d × 3, i.v
  T/C, Day 31 (%): 10%
  Δ Tumor volume, Day 31: 221 ± 71 mm^3
[2]; 0.5 mg/kg, Q4d × 3, i.v, D10
  Max. % Regression (Day): 42 (D10) %
[2]; 1 mg/kg, Q4d × 3, i.v
  T/C, Day 31 (%): 0.1* %
  Δ Tumor volume, Day 31: 1.5 ± 26 mm^3
[2]; 1 mg/kg, Q4d × 3, i.v, D17, listed as COMPOUND IIa
  Max. % Regression (Day): 56 (D17) %
[2]; 1 mg/kg, Q4d × 3, i.v, D17, listed as compound IIa
  Max. % Regression (Day): 56%
